# Tested on: HCV 1b genotype
# Experiment: microbe, parasite or virus in culture
# Format: cell-based, Hepatitis C virus
# Details: HCV 1b replicon; read-out: Range: EC50 ranges against HCV 1b
# Description: An HCV Replicon assay was utilized in the present disclosure, and was prepared, conducted and validated as described in commonly owned PCT/US2006/022197 and in O'Boyle et. al. Antimicrob Agents Chemother. 2005 April; 49(4):1346-53. Assay methods incorporating luciferase reporters have also been used as described (Apath.com).
# HCV-neo replicon cells and replicon cells containing resistance substitutions in the NS5A region were used to test the currently described family of compounds.
row,Compound,EC50 [nM]
1,COC(=O)NC(C(=O)N1C(c2nc(-c3ccc(-c4ccc(-c5c[nH]c([C@@H]6CC[C@H](C)N6C(=O)C(NC(=O)OC)C6CCC7(CC7)OC6)n5)cc4)cc3)c[nH]2)CC[C@@H]1C)C1CCC2(CC2)OC1 (some centres unmarked) [Example 1.2],0.00501 to 0.1
2,"COC(=O)NC(C(=O)N1[C@@H](C)CC[C@H]1c1ncc(-c2ccc(-c3ccc(-c4cnc([C@@H]5CC[C@H](C)N5C(=O)C(NC(=O)OC)C5CCOC6(CCCC6)C5)[nH]4)cc3)cc2)[nH]1)C1CCOC2(CCCC2)C1 (single isomer, unassigned) [Example 3.2]",0.9 to 700
3,"COC(=O)NC(C(=O)N1[C@@H](C)CC[C@H]1c1ncc(-c2ccc(-c3ccc(-c4cnc([C@@H]5CC[C@H](C)N5C(=O)C(NC(=O)OC)C5CCOC6(CCC6)C5)[nH]4)cc3)cc2)[nH]1)C1CCOC2(CCC2)C1 (single isomer, unassigned) [Example 2.1]",0.9 to 700
4,"COC(=O)NC(C(=O)N1[C@@H]2C[C@@H]2C[C@H]1c1nc(-c2ccc(-c3ccc(-c4c[nH]c([C@@H]5C[C@H]6C[C@H]6N5C(=O)C(NC(=O)OC)C5[C@H]6COC[C@@H]56)n4)cc3)cc2)c[nH]1)C1[C@H]2COC[C@@H]12 (single isomer, unassigned; diastereomer 1) [QC4.1]",0.00501 to 0.1
5,"dimethyl (1H,1′H-7,7′-binaphtho[1,2-d]imidazole-2,2′-diylbis((2S)-2,1-pyrrolidinediyl(1-(4-oxaspiro[2.5]oct-7-yl)-2-oxo-2,1-ethanediyl)))biscarbamate [QC13]",0.00501 to 0.1
6,COC(=O)NC(C(=O)N1C[C@@H](C)C[C@H]1c1nc2cc(C#Cc3ccc4c(ccc5nc([C@@H]6C[C@H](C)CN6C(=O)C(NC(=O)OC)C6CCOC7(CC7)C6)[nH]c54)c3)ccc2[nH]1)C1CCOC2(CC2)C1 (some centres unmarked) [QC9],0.00501 to 0.1
7,"COC(=O)NC(C(=O)N1[C@@H]2C[C@@H]2C[C@H]1c1nc(-c2ccc(-c3ccc(-c4c[nH]c([C@@H]5C[C@H]6C[C@H]6N5C(=O)C(NC(=O)OC)C5C[C@@H]6[C@H](C5)C6(F)F)n4)cc3)cc2)c[nH]1)C1C[C@@H]2[C@H](C1)C2(F)F (single isomer, unassigned; diastereomer 2) [QC2.2]",0.00501 to 0.1
8,"COC(=O)NC(C(=O)N1CCCC1c1nc2cc(C#Cc3ccc4[nH]c(C5CCCN5C(=O)C(NC(=O)OC)C5CCOC6(CC6)C5)nc4c3)ccc2[nH]1)C1CCOC2(CC2)C1 [OL9, dimethyl (((2S,2′S)-2,2′-(5,5′-(ethyne-1,2-diyl)bis(1H-benzo[d]imidazole-5,2-diyl))bis(pyrrolidine-2,1-diyl))bis(2-oxo-1-(4-oxaspiro[2.5]octan-7-ypethane-2,1-diyl))dicarbamate]",0.1 to 0.9
9,"COC(=O)NC(C(=O)N1[C@@H](C)CC[C@H]1c1ncc(-c2ccc(-c3ccc(-c4cnc([C@@H]5CC[C@H](C)N5C(=O)C(NC(=O)OC)C5CCOC6(CCC6)C5)[nH]4)cc3)cc2)[nH]1)C1CCOC2(CCC2)C1 (single isomer, unassigned) [Example 2.4]",0.00501 to 0.1
10,"COC(=O)NC(C(=O)N1C(c2ncc(-c3ccc(C#Cc4ccc(-c5cnc(C6CC7CC7N6C(=O)C(NC(=O)OC)C6CCOC7(CC7)C6)[nH]5)cc4)cc3)[nH]2)CC2CC21)C1CCOC2(CC2)C1 [OL4, dimethyl (((1R,1′R,3S,3′S,5R,5′R)-3,3′-(5,5′-(ethyne-1,2-diylbis(4,1-phenylene))bis(1H-imidazole-5,2-diyl))bis(2-azabicyclo[3.1.0]hexane-3,2-diyl))bis(2-oxo-1-(4-oxaspiro[2.5]octan-7-yl)ethane-2,1-diyl))dicarbamate]",0.00501 to 0.1

# Same assay, conditions: Hepatitis C virus, HCV 1b replicon; read-out: 1b (μM): EC50 (Effective 50% inhibitory concentration) against the HCV 1b genotype
row,Compound,EC50 [nM]
1,"COC(=O)NC(C(=O)N1CCC[C@H]1c1nc2cc(-c3ccc4c(ccc5nc([C@@H]6CCCN6C(=O)C(NC(=O)OC)C6CCOC7(CC7)C6)[nH]c54)c3)ccc2[nH]1)C1CCOC2(CC2)C1 (stereo partly drawn) [QC10, methyl (2-((2S)-2-(7-(2-((2S)-1-(((methoxycarbonyl)amino)(4-oxaspiro[2.5]oct-7-yl)acetyl)-2-pyrrolidinyl)-1H-benzimidazol-5-yl)-1H-naphtho[1,2-d]imidazol-2-yl)-1-pyrrolidinyl)-1-(4-oxaspiro[2.5]oct-7-yl)-2-oxoethyl)carbamate]",0.259
2,"COC(=O)NC(C(=O)N1[C@@H]2C[C@@H]2C[C@H]1c1nc(-c2ccc(-c3ccc(-c4c[nH]c([C@@H]5C[C@H]6C[C@H]6N5C(=O)C(NC(=O)OC)[C@H]5C[C@@H]6C[C@@H]6C5)n4)cc3)cc2)c[nH]1)[C@H]1C[C@@H]2C[C@@H]2C1 (single isomer, unassigned; diastereomer 3) [QC5.3]",0.00555
3,"C#C[C@@H]1CC[C@@H](c2ncc(-c3ccc(-c4ccc(-c5cnc([C@@H]6CC[C@@H](C#C)N6C(=O)[C@@H](NC(=O)OC)C6C[C@@H](C)O[C@H](C)C6)[nH]5)cc4)cc3)[nH]2)N1C(=O)[C@@H](NC(=O)OC)C1C[C@@H](C)O[C@H](C)C1 (stereo partly drawn) [Example 10.1, dimethyl (4,4′-biphenyldiylbis(1H-imidazole-4,2-diyl((2S,5S)-5-ethynyl-2,1-pyrrolidinediyl)((1S)-1-((2R,6R)-2,6-dimethyltetrahydro-2H-pyran-4-yl)-2-oxo-2,1-ethanediyl)))biscarbamate]",0.263
4,COC(=O)NC(C(=O)N1[C@@H](C)CC[C@H]1c1ncc(-c2ccc(-c3ccc(-c4cnc([C@@H]5CC[C@H](C)N5C(=O)C(NC(=O)OC)C5CC6(CC6)C5)[nH]4)cc3)cc2)[nH]1)C1CC2(CC2)C1 (some centres unmarked) [Example 5.2],9.07

# Same assay, conditions: Hepatitis C virus, HCV 1b replicon; read-out: Range: EC50 ranges against HCV 1b
row,Compound,EC50 [nM]
1,"COC(=O)NC(C(=O)N1[C@@H]2C[C@@H]2C[C@H]1c1ncc(-c2ccc(-c3ccc(-c4cnc([C@@H]5C[C@H]6C[C@H]6N5C(=O)[C@@H](NC(=O)OC)C(C)C)[nH]4)cc3)cc2)[nH]1)C1CCOC2(CC2)C1 (stereo partly drawn) [OL3, methyl ((2S)-1-((1R,3S,5R)-3-(5-(4′-(2-((1R,3S,5R)-2-(((methoxycarbonyl)amino)(4-oxaspiro[2.5]oct-7-yl)acetyl)-2-azabicyclo[3.1.0]hex-3-yl)-1H-imidazol-5-yl)biphenyl-4-yl)-1H-imidazol-2-yl)-2-azabicyclo[3.1.0]hex-2-yl)-3-methyl-1-oxobutan-2-yl)carbamate]",0.00501 to 0.1
2,"COC(=O)NC(C(=O)N1CCC[C@H]1c1nc2cc(-c3ccc(Oc4cccc5[nH]c([C@@H]6CCCN6C(=O)C(NC(=O)OC)C6CCOC7(CC7)C6)nc45)cc3)ccc2[nH]1)C1CCOC2(CC2)C1 (stereo partly drawn) [QC15, methyl (2-((2S)-2-(5-(4-((2-((2S)-1-(((methoxycarbonyl)amino)(4-oxaspiro[2.5]oct-7-yl)acetyl)pyrrolidin-2-yl)-1H-benzimidazol-4-yl)oxy)phenyl)-1H-benzimidazol-2-yl)pyrrolidin-1-yl)-1-(4-oxaspiro[2.5]oct-7-yl)-2-oxoethyl)carbamate]",0.00501 to 0.1
3,"COC(=O)N[C@H](C(=O)N1[C@@H](C)CC[C@H]1c1ncc(-c2ccc(-c3ccc(-c4cnc([C@@H]5CC[C@H](C)N5C(=O)[C@@H](NC(=O)OC)C5CC6(COC6)C5)[nH]4)cc3)cc2)[nH]1)C1CC2(COC2)C1 (stereo partly drawn) [Example 13, dimethyl (4,4′-biphenyldiylbis(1H-imidazole-5,2-diyl((2S,5S)-5-methyl-2,1-pyrrolidinediyl)((1S)-1-(2-oxaspiro[3.3]hept-6-yl)-2-oxo-2,1-ethanediyl)))biscarbamate]",0.00501 to 0.1
4,"C#C[C@H]1CC[C@@H](c2ncc(-c3ccc(-c4ccc(-c5cnc([C@@H]6CC[C@H](C#C)N6C(=O)[C@@H](NC(=O)OC)C6C[C@@H](C)O[C@H](C)C6)[nH]5)cc4)cc3)[nH]2)N1C(=O)[C@@H](NC(=O)OC)C1C[C@@H](C)O[C@H](C)C1 (stereo partly drawn) [Example 10, dimethyl (4,4′-biphenyldiylbis(1H-imidazole-5,2-diyl((2S,5R)-5-ethynyl-2,1-pyrrolidinediyl)((1S)-1-((2R,6R)-2,6-dimethyltetrahydro-2H-pyran-4-yl)-2-oxo-2,1-ethanediyl)))biscarbamate]",0.00501 to 0.1
5,"COC(=O)N[C@H](C(=O)N1[C@@H](C)CC[C@H]1c1ncc(-c2ccc(-c3ccc(-c4cnc([C@@H]5CC[C@H](C)N5C(=O)[C@@H](NC(=O)OC)[C@H]5C[C@H](C)O[C@@H](C6CC6)C5)[nH]4)cc3)cc2)[nH]1)[C@H]1C[C@H](C)O[C@@H](C2CC2)C1 [Example 9.3, dimethyl ((S,R,S,1S,1′S)-((2S,2′S,5S,5′S)-5,5′-(5,5′-([1,1′-biphenyl]-4,4′-diyl)bis(1H-imidazole-5,2-diyl))bis(2-methylpyrrolidine-5,1-diyl))bis(1-((2R,4S,6S)-2-cyclopropyl-6-methyltetrahydro-2H-pyran-4-yl)-2-oxoethane-2,1-diyl))dicarbamate]",0.00501 to 0.1
6,"COC(=O)NC(C(=O)N1[C@@H](C)CC[C@H]1c1nc(-c2ccc(-c3ccc(-c4c[nH]c([C@@H]5CC[C@H](C)N5C(=O)C(NC(=O)OC)=C5CC(C)(C#N)C5)n4)cc3)cc2)c[nH]1)=C1CC(C)(C#N)C1 (stereo partly drawn) [Example 12.1, dimethyl (4,4′-biphenyldiylbis(1H-imidazole-4,2-diyl((2S,5S)-5-methyl-2,1-pyrrolidinediyl)(1-(3-cyano-3-methylcyclobutylidene)-2-oxo-2,1-ethanediyl)))biscarbamate]",0.9 to 700
7,"COC(=O)NC(C(=O)N1CCC[C@H]1c1nc2cc(-c3ccc4c(ccc5nc([C@@H]6CCCN6C(=O)C(NC(=O)OC)C6CCOC7(CC7)C6)[nH]c54)c3)ccc2[nH]1)C1CCOC2(CC2)C1 (stereo partly drawn) [QC10, methyl (2-((2S)-2-(7-(2-((2S)-1-(((methoxycarbonyl)amino)(4-oxaspiro[2.5]oct-7-yl)acetyl)-2-pyrrolidinyl)-1H-benzimidazol-5-yl)-1H-naphtho[1,2-d]imidazol-2-yl)-1-pyrrolidinyl)-1-(4-oxaspiro[2.5]oct-7-yl)-2-oxoethyl)carbamate]",0.1 to 0.9
8,"COC(=O)NC(C(=O)N1[C@@H]2C[C@@H]2C[C@H]1c1nc(-c2ccc(-c3ccc(-c4c[nH]c([C@@H]5C[C@H]6C[C@H]6N5C(=O)C(NC(=O)OC)[C@H]5C[C@@H]6C[C@@H]6C5)n4)cc3)cc2)c[nH]1)[C@H]1C[C@@H]2C[C@@H]2C1 (single isomer, unassigned; diastereomer 3) [QC5.3]",0.00501 to 0.1
9,"C#C[C@@H]1CC[C@@H](c2ncc(-c3ccc(-c4ccc(-c5cnc([C@@H]6CC[C@@H](C#C)N6C(=O)[C@@H](NC(=O)OC)C6C[C@@H](C)O[C@H](C)C6)[nH]5)cc4)cc3)[nH]2)N1C(=O)[C@@H](NC(=O)OC)C1C[C@@H](C)O[C@H](C)C1 (stereo partly drawn) [Example 10.1, dimethyl (4,4′-biphenyldiylbis(1H-imidazole-4,2-diyl((2S,5S)-5-ethynyl-2,1-pyrrolidinediyl)((1S)-1-((2R,6R)-2,6-dimethyltetrahydro-2H-pyran-4-yl)-2-oxo-2,1-ethanediyl)))biscarbamate]",0.1 to 0.9
10,COC(=O)N[C@H](C(=O)N1[C@@H](CF)CC[C@H]1c1ncc(-c2ccc(-c3ccc(-c4cnc([C@@H]5CC[C@H](CF)N5C(=O)[C@@H](NC(=O)OC)[C@H]5CCOC6(CC6)C5)[nH]4)cc3)cc2)[nH]1)[C@H]1CCOC2(CC2)C1 [Example 8],0.00501 to 0.1
11,COC(=O)NC(C(=O)N1[C@@H](C)CC[C@H]1c1ncc(-c2ccc(-c3ccc(-c4cnc([C@@H]5CC[C@H](C)N5C(=O)C(NC(=O)OC)C5CC6(CC6)C5)[nH]4)cc3)cc2)[nH]1)C1CC2(CC2)C1 (some centres unmarked) [Example 5.2],0.9 to 700

# Same assay, conditions: read-out: Range: EC50 ranges against HCV 1b
row,Compound,EC50 [nM]
1,"COC(=O)NC(C(=O)N1C(c2nc(Cl)c(-c3ccc(-c4ccc(-c5[nH]c(C6CC7CC7N6C(=O)C(NC(=O)OC)C6CCOC7(CC7)C6)nc5Cl)cc4)cc3)[nH]2)CC2CC21)C1CCOC2(CC2)C1 [OL5, dimethyl (((1R,1′R,3S,3′S,5R,5′R)-3,3′-(5,5′-([1,1′-biphenyl]-4,4′-diyl)bis(4-chloro-1H-imidazole-5,2-diyl))bis(2-azabicyclo[3.1.0]hexane-3,2-diyl))bis(2-oxo-1-(4-oxaspiro[2.5]octan-7-yl)ethane-2,1-diyl))dicarbamate]",0.00501 to 0.1

# Source: patent publication US9561212B2, “Hepatitis C virus inhibitors” (BRISTOL-MYERS SQUIBB COMPANY, priority 2012, dated 2017)
